Experimental data: PMC8344021, “Discovery of Small Molecule Bak Activator for Lung Cancer Therapy” (Theranostics, 2021)

Test system: H1299, H460 and A549 cells
Test: Sulforhodamine B (SRB) cytotoxicity screening
Assay type: cell-based, human
Conditions: SRB assay
Text: The BH3 death domain is known to be required for the proapoptotic function of Bak. We chose the BH3 domain binding pocket (aa75-88) of Bak (PDB ID: 2YV6) as a docking site for screening of small molecules using the UCSF DOCK 6.1 program suite and the NCI chemical library (300,000 small molecule) database as we recently described, [20], [29], [34]. Small molecules were ranked according to their energy scores. The top 500 compounds determined to have the highest affinity for the BH3 domain were obtained from the NCI and tested for cytotoxicity in human lung cancer cells (i.e. H1299, H460 and A549 cells) by sulforhodamine B (SRB) assay for further screening as described, [36]. […] We named this lead compound Bak activator BKA-073 (C19H24ClN3O2, MW: 361.87) (Figure 1A). To test the effect of BKA-073 on mitochondrial priming (∆% priming) and apoptotic cell death, human lung cancer A549 cells were treated with increasing concentrations (0, 0.25, 0.5, 0.75, 1.0 µM) of BKA-073, followed by analysis of dynamic BH3 profiling (DBP) at 16h and apoptotic cell death at 72h as described, [37]. […] In addition to lung cancer cell lines, we evaluated the efficacy of BKA-073 in other types of cancer cell lines, including breast cancer (MDA-MB-231 and MCF7), colon cancer (HCT-116), lymphoma (Ramos), multiple myeloma (OPM-1), pancreatic cancer (PANC-1) and osteosarcoma (U2OS) cell lines. […]

In the case of `COc1ccc2nc3ccccc3c(NCCNCC(C)O)c2c1` (stereo not shown) [BKA-073], the “cytotoxicity among top 500 docking hits” value is reported as “most potent activity”.
